Test results as given in patent US11865126B2, “Method for treating anxiety disorders, headache disorders, and eating disorders with psilocybin” (priority 2019, dated 2024).

Tested on: healthy subjects
Experiment: Reading the Mind in the Eyes Test (RMET)
Format: in vivo, human
Text: In some embodiments, Reading the Mind in the Eyes Test (RMET) is utilized to evaluate the safety and/or efficacy of psilocybin. The RMET has 36 items, in which subjects are presented with a photograph of the eyes region of the face and must choose 1 of 4 adjectives or phrases to describe the mental state of the person pictured. A definition handout is provided at the beginning of the task and a practice item precedes the first trial.
The following list of outcome measures are non-exhaustive. • a. The short-term change from Baseline (Day −1 [Visit 2]) to Day 7 (Visit 5) in cognitive measures of attention, spatial and working memory and executive function was measured by a composite score of the CANTAB Panel (Spatial Working Memory [SWM], Rapid Visual Information Processing [RVP], Paired Associates Learning [PAL]). • b. The short-term change from Baseline (Day −1 [Visit 2]) to Day 7 (Visit 5) in Social Cognition Panel scales (Pictorial Empathy Test [PET], Reading the Mind in the Eyes Test [RMET], Toronto Empathy Questionnaire [TEQ], Social Value Orientation [SVO], Scale of Social Responsibility [SSR]). • c. The change from Baseline (Day −1 [Visit 2]) to Day 28 (Visit 6) in cognitive measures of attention, spatial and working memory and executive function as measured by a composite score of the CANTAB Panel (SWM, RVP, PAL). • d. The long-term change from Baseline (Day −1 [Visit 2]) to Day 84 (Visit 7) in Social Cognition Panel scales (PET, RMET, TEQ, SVO, SSR). • e. Dose-related differences between cognitive effects of psilocybin at Baseline (Day −1 [Visit 2]), Day 7 (Visit 5) and Day 28 (Visit 6), as measured by a composite score of the CANTAB Panel (SWM, RVP, PAL). • f. Dose-related differences between psychological effects of psilocybin at Baseline (Day −1 [Visit 2]), Day 7 (Visit 5) and Day 84 (Visit 7), as measured by Social Cognition Panel scales (PET, RMET, TEQ, SVO, SSR). • g. Differences in cognitive effects of psilocybin between psilocybin-naïve and experienced subjects at Baseline (Day −1 [Visit 2]), Day 7 (Visit 5) and Day 28 (Visit 6), as measured by a composite score of the CANTAB Panel (SWM, RVP, PAL). • h. Differences in Positive and Negative Affect Schedule (PANAS) after study drug administration on Day 0 (Visit 3). • i. Differences between psilocybin and placebo in the Emotion Recognition Test (ERT), Intra-Extra Dimensional Set Shift (IED), One Touch Stockings (OTS), Verbal Fluency and Digit Span Forward at Day 7 (Visit 5). • j. A composite score of the CANTAB Panel, including the following tests: • i. Spatial Working Memory (SWM) (performed at Visit 2, Visit 5, and Visit 6). • ii. Rapid Visual Information Processing (RVP) (performed at Visit 2, Visit 5, and Visit 6). • iii. Paired Associates Learning (PAL) (performed at Visit 2, Visit 5, and Visit 6). • k. Cognitive Flexibility Panel • i. Emotion Recognition Task (ERT) (performed at Visit 5). • ii. Intra-Extra Dimensional Set Shift (IED) (performed at Visit 5). • iii. One Touch Stockings (OTS) (performed at Visit 5). • iv. Verbal Fluency (performed at Visit 5). • v. Digit Span Forward (performed at Visit 5). • l. Five Dimension Altered States of Consciousness questionnaire (5D-ASC) (performed at Visit 3). • m. PANAS (performed at Visit 2 and Visit 3). • n. NEO-Five Factor Inventory (NEO-FFI) (performed at Visit 2, Visit 5, and Visit 7). • o. Symptom Checklist-90 item (SCL-90) (performed at Visit 2, Visit 5, and Visit 7). • p. Life Changes Inventory (LCI): The LCI measures changes in attitudes and values after near-death experiences often used to evaluate personal transformation following spiritually oriented experiences and practices. (performed at Visit 5 and Visit 7). • q. Social Cognition Panel scales • i. Pictorial Empathy Test (PET) (performed at Visit 2, Visit 5, and Visit 7). • ii. Reading the Mind in the Eyes Test (RMET) (performed at Visit 2, Visit 5, and Visit 7). • iii. Social Value Orientation (SVO) (performed at Visit 2, Visit 5, and Visit 7). • iv. […]

With `CN(C)CCc1c[nH]c2cccc(OP(=O)(O)O)c12` [psilocybin] the “RMET change from baseline, LS mean difference Psilocybin 10 mg - Placebo” value (Day 7, MMRM) was 0.1, the “RMET change from baseline, LS mean difference Psilocybin 25 mg - Placebo” value (Day 7, MMRM) was 0.2 and the “RMET change from baseline, LS mean difference Psilocybin 25 mg-10 mg” value (Day 7, MMRM) was 0.0. The “RMET change from baseline, LS mean difference Psilocybin 10 mg - Placebo” value (Day 84, MMRM) was 0.2, the “RMET change from baseline, LS mean difference Psilocybin 25 mg - Placebo” value (Day 84, MMRM) was 0.5 and the “RMET change from baseline, LS mean difference Psilocybin 25 mg-10 mg” value (Day 84, MMRM) was 0.3.
